From patent US9856216B2, “Compounds as TNIK, IKKε and TBK1 inhibitors and pharmaceutical composition comprising same” (GREEN CROSS CORPORATION, priority 2015, dated 2018)
Structures can show the parent of a compound that is named as a salt.

molecular target: T1, TNIK (Homo sapiens, UniProt Q9UKE5); test: ADP-Glo Kinase Assay, inhibition activity on TNIK; type: biochemical; conditions: not given
T1 construct: purchased Promega V4158
Procedure: The inhibition activities on TNIK, IKKε and TBK1 were measured by a luminometer, TNIK/IKKε/TBK1 Kinase Enzyme System (Promega, Ca# V4158; Invitrogen, PR8031B, Promega, Ca# V3991) and ADP-Glo Kinase Assay using ADP-Glo™ Kinase Analysis Kit (Promega, Ca# V9101) and a kinase reaction buffer [40 mM Tris(pH 7.5), 20 mM MgCl2, 0.1 mg/mL BSA] in accordance with the manufacturer's protocol.

T1 sequence (Q9UKE5 1-367 limits assumed): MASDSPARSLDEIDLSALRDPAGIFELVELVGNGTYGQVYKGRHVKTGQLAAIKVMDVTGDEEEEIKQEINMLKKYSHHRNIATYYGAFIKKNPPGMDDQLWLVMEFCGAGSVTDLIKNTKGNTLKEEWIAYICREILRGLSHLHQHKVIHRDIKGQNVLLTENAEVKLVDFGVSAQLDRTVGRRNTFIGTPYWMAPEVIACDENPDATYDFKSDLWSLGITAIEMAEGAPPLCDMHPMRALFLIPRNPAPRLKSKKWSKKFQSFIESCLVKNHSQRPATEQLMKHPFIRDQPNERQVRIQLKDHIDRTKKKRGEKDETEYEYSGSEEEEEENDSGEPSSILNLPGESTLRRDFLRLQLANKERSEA

Row | SMILES | TNIK (μM)
1 | O=C(Nc1ccc(-c2ccccc2)c2c1C(=O)NC2)c1ccc([N+](=O)[O-])cc1 [Example 119, 4-Nitro-N-(3-oxo-7-phenylisoindolin-4-yl)benzamide] | Insoluble
2 | O=C(Nc1ccc(-c2ccncc2)c2c1C(=O)NC2)c1ccccc1 [Example 127, N-(3-oxo-7-(pyridin-4-yl)isoindolin-4-yl)benzamide] | Insoluble

same assay, conditions: read-out: TNIK

Row | SMILES | IC50
3 | Cc1ccccc1-c1ccc(NC(=O)c2ccccc2)c2c1CNC2=O [Example 112, N-(3-oxo-7-(o-tolyl)isoindolin-4-yl)benzamide] | 2200 nM
4 | Cc1cccc(-c2ccc(NC(=O)c3ccccc3)c3c2CNC3=O)c1 [Example 113, N-(3-oxo-7-(m-tolyl)isoindolin-4-yl)benzamide] | 1700 nM
5 | O=C(Nc1ccc(-c2ccccc2C(F)(F)F)c2c1C(=O)NC2)c1ccccc1 [Example 114, N-(3-oxo-7-(2-(trifluoromethyl)phenyl)isoindolin-4-yl) benzamide] | > 20000 nM
6 | O=C(Nc1ccc(-c2cccc(C(F)(F)F)c2)c2c1C(=O)NC2)c1ccccc1 [Example 115, N-(3-oxo-7-(3-(trifluoromethyl)phenyl)isoindolin-4-yl) benzamide] | > 20000 nM
7 | CC(=O)Nc1ccc(C(=O)Nc2ccc(-c3ccccc3)c3c2C(=O)NC3)cc1 [Example 116, 4-Acetamido-N-(3-oxo-7-phenylisoindolin-4-yl)benzamide] | 130 nM
8 | O=C(Nc1ccc(-c2ccccc2)c2c1C(=O)NC2)c1ccccc1 [Example 117, N-(3-oxo-7-phenylisoindolin-4-yl)benzamide] | 2320 nM
9 | COc1ccc(-c2ccc(NC(=O)c3ccccc3)c3c2CNC3=O)cc1 [Example 118, N-(7-(4-methoxyphenyl)-3-oxoisoindolin-4-yl)benzamide] | > 20000 nM
10 | COc1ccc(-c2ccc(NC(=O)c3ccc(NC(C)=O)cc3)c3c2CNC3=O)cc1 [Example 120, 4-Acetamido-N-(7-(4-methoxyphenyl)-3-oxoisoindolin-4-yl) benzamide] | > 20000 nM
11 | COc1ccc(C(=O)Nc2ccc(-c3ccccc3)c3c2C(=O)NC3)cc1 [Example 121, 4-Methoxy-N-(3-oxo-7-phenylisoindolin-4-yl)benzamide] | 3400 nM
12 | O=C(Nc1ccc(-c2ccccc2)c2c1C(=O)NC2)c1ccc(F)cc1 [Example 122, 4-Fluoro-N-(3-oxo-7-phenylisoindolin-4-yl)benzamide] | 2200 nM
13 | COc1ccc(C(=O)Nc2ccc(-c3ccc(F)cc3)c3c2C(=O)NC3)cc1 [Example 123, N-(7-(4-fluorophenyl)-3-oxoisoindolin-4-yl)-4-methoxy benzamide] | 7000 nM
14 | CC(=O)Nc1ccc(C(=O)Nc2ccc(-c3ccc(F)cc3)c3c2C(=O)NC3)cc1 [Example 124, 4-Acetamido-N-(7-(4-fluorophenyl)-3-oxoisoindolin-4-yl) benzamide] | 170 nM
15 | O=C(Nc1ccc(-c2cccs2)c2c1C(=O)NC2)c1ccccc1 [Example 125, N-(3-oxo-7-(thiophen-2-yl)isoindolin-4-yl)benzamide] | 1400 nM
16 | O=C(Nc1ccc(-c2ccco2)c2c1C(=O)NC2)c1ccccc1 [Example 126, N-(7-(furan-2-yl)-3-oxoisoindolin-4-yl)benzamide] | 600 nM
17 | O=C(Nc1ccc(-c2ccncc2)c2c1C(=O)NC2)c1ccccc1 [Example 128, N-(3-oxo-7-(pyridin-4-yl)isoindolin-4-yl)benzamide hydrochloride] | > 20000 nM
18 | COc1ccccc1C(=O)Nc1ccc(-c2ccccc2)c2c1C(=O)NC2 [Example 129, 2-Methoxy-N-(3-oxo-7-phenylisoindolin-4-yl)benzamide] | > 20000 nM
19 | O=C(Nc1ccc(-c2ccccc2)c2c1C(=O)NC2)c1cccc(F)c1 [Example 130, 3-fluoro-N-(3-oxo-7-phenylisoindolin-4-yl)benzamide] | > 20000 nM

Row | SMILES | IC50
20 | CSc1ccc(C(=O)Nc2ccc(-c3ccccc3)c3c2C(=O)NC3)cc1 [Example 131, 4-(Methylthio)-N-(3-oxo-7-phenylisoindolin-4-yl)benzamide] | 2300 nM
21 | CCCOc1ccc(-c2ccc(NC(=O)c3ccccc3)c3c2CNC3=O)cc1 [Example 132, N-(3-oxo-7-(4-propoxyphenyl)isoindolin-4-yl)benzamide] | > 20000 nM
22 | CC(C)c1ccc(-c2ccc(NC(=O)c3ccccc3)c3c2CNC3=O)cc1 [Example 133, N-(7-(4-isopropylphenyl)-3-oxoisoindolin-4-yl)benzamide] | > 20000 nM
23 | COc1cccc(-c2ccc(NC(=O)c3ccco3)c3c2CNC3=O)c1OC [Example 134, N-(7-(2,3-dimethoxyphenyl)-3-oxoisoindolin-4-yl)furan-2-carboxamide] | 54 nM
24 | COc1cccc(-c2ccc(NC(=O)c3ccc(F)cc3)c3c2CNC3=O)c1OC [Example 135, N-(7-(2,3-dimethoxyphenyl)-3-oxoisoindolin-4-yl)-4-fluoro benzamide] | 140 nM
25 | COc1cccc(-c2ccc(NC(=O)c3cccs3)c3c2CNC3=O)c1OC [Example 136, N-(7-(2,3-dimethoxyphenyl)-3-oxoisoindolin-4-yl)thiophene-2-carboxamide] | 68 nM
26 | Cc1cc(F)ccc1C(=O)Nc1ccc(-c2ccccc2)c2c1C(=O)NC2 [Example 137, 4-Fluoro-2-methyl-N-(3-oxo-7-phenylisoindolin-4-yl) benzamide] | > 20000 nM
27 | COc1ccccc1-c1ccc(NC(=O)c2ccc(NC(C)=O)cc2)c2c1CNC2=O [Example 138, 4-Acetamido-N-(7-(2-methoxyphenyl)-3-oxoisoindolin-4-yl) benzamide] | 200 nM
28 | CN(C)c1ccc(C(=O)Nc2ccc(-c3ccccc3)c3c2C(=O)NC3)cc1 [Example 139, 4-(Dimethylamino)-N-(3-oxo-7-phenylisoindolin-4-yl) benzamide] | 1800 nM
29 | CC(=O)Nc1ccc(C(=O)Nc2ccc(-c3ccco3)c3c2C(=O)NC3)cc1 [Example 140, 4-Acetamido-N-(7-(furan-2-yl)-3-oxoisoindolin-4-yl) benzamide] | 300 nM
30 | COc1ccccc1-c1ccc(NC(=O)c2ccc(F)cc2)c2c1CNC2=O [Example 141, 4-Fluoro-N-(7-(2-methoxyphenyl)-3-oxoisoindolin-4-yl) benzamide] | 1600 nM
31 | O=C(Nc1ccc(-c2ccccc2)c2c1C(=O)NC2)c1ccccc1F [Example 142, 2-Fluoro-N-(3-oxo-7-phenylisoindolin-4-yl)benzamide] | 950 nM
32 | O=C(Nc1ccc(-c2ccccc2)c2c1C(=O)NC2)c1ccc(Cl)cc1 [Example 143, 4-Chloro-N-(3-oxo-7-phenylisoindolin-4-yl)benzamide] | 1100 nM
33 | COc1ccccc1-c1ccc(NC(=O)c2ccccc2)c2c1CNC2=O [Example 144, N-(7-(2-methoxyphenyl)-3-oxoisoindolin-4-yl)benzamide] | 700 nM
34 | COc1cccc(-c2ccc(NC(=O)c3ccccc3)c3c2CNC3=O)c1 [Example 145, N-(7-(3-methoxyphenyl)-3-oxoisoindolin-4-yl)benzamide] | 1300 nM
35 | O=C(Nc1ccc(-c2ccsc2)c2c1C(=O)NC2)c1ccccc1 [Example 146, N-(3-oxo-7-(thiophen-3-yl)isoindolin-4-yl)benzamide] | > 20000 nM
36 | N#Cc1cccc(-c2ccc(NC(=O)c3ccccc3)c3c2CNC3=O)c1 [Example 147, N-(7-(3-cyanophenyl)-3-oxoisoindolin-4-yl)benzamide] | > 20000 nM
